Source: patent publication US20160175485A1, “COMBINATION THERAPY TO PROMOTE WOUND HEALING” (THE REGENTS OF THE UNIVERSITY OF CALIFORNIA, priority 2013, published 2016)
Values belong to the compound of their own block, whether it stands above or below them.

Legend:
BM-MSC [1] = assay: Single-cell migration of BM-MSC; type: cell-based, human; conditions: EPI 50 nM, MALP2 100 ng/ml, Timolol 10 μM, 30 min pretreatment
Excerpt: (§1) Human bone marrow aspirations obtained from four healthy donors were purchased from Lonza. MSC were harvested from bone marrow (BM) following established protocols (26, 27), and used between passages 3-5. Characterization of MSC included differentiation into osteogenic and adipogenic lineage cells, as described previously (27). The stem cell research oversight (SCRO) review board at the University of California, Davis approved all the human cell protocols.
(§2) Epinephrine (EPI: Sigma) and TLR2 ligands (macrophage activating lipoprotein-2: MALP2—that specifically activates TLR2/6 heterodimerization, and heat killed Staphylococcus aureus: HKSA; Invivogen) treatments were carried out at the indicated times and concentrations. All the cells were maintained in 0.5% fetal bovine serum containing culture medium overnight prior to treatment. Cells were exposed to different treatments in fresh serum-free medium. In some experiments, cells were pretreated for 30 minutes with Timolol (10 μM; Sigma) or ICI-118, 551 (ICI; 10 μM; Tocris) followed by EPI and MALP2 treatment as described previously (11-13, 30).

NHK [2] = assay: Co-immunoprecipitation with β2-AR and TLR2 antibody in NHK; type: cell-based, human; conditions: MALP2 100 ng/ml
Excerpt: (§3) Twenty five μg of total protein was resolved, transferred, and probed with antibodies for β2-AR (Abcam), phospho beta-adrenergic receptor activated kinase-1 (BARK-1/GRK2 referred to as BARK-1 from here after; GeneTex), TLR2 (Imgenex) Myeloid differentiation factor 88 (MyD88; Imgenex), phospho interleukin receptor activated kinase-1 (pIRAK-1 and IRAK-1; Cell Signaling), phospho ERK1/2 (Santacruz), phenylethanolamine N-methyltransferase (PNMT) and tyrosine hydroxylase (TH), and stripped membranes were further incubated with respective total antibodies or GAPDH or α-tubulin. TLR2 (Imgenex) and β2-AR (Santacruz) antibodies were used for co-immunoprecipation assays and antibody protein complexes were further probed with above antibodies β1). Protein A/G-sepharose beads and isotype matched IgG antibodies were used as negative controls in all the co-immunoprecipitation experiments along with the antibody used for the pull down as a positive control. Band intensities were determined as described previously and normalized to GAPDH/α-tubulin or total protein (BARK-1) and densitometric ratios are presented as fold change vs control β1). For some experiments, cell lysates from three independent experiments were pooled to get enough protein for the assay and repeated three times for densitometry purposes.

NHK [3] = assay: HPLC detection of catecholamines in NHK supernatants; type: cell-based, human
Description: (§4) Cell culture samples from at least from three independent experiments were acidified with perchloric acid to 0.2N prior to storage at −80° C. for future analysis. The supernatant were applied to conditioned MonoSpin® PBA solid phase extraction spin columns (GL Sciences) and purifications were performed according to the manufacturer's specifications. Catecholamines were eluted in 200 μL of 2% acetic acid.
(§5) HPLC separation was performed using a Synergi™ 4 um Fusion-reverse phase 250×4.6 mm column (Phenomenex) and a HP series 1050 pump and auto injector system. The mobile phase for chromatographic separation was a modification of that used by Leis et al (33). Detection of catecholamine compounds was performed using a LC-4C amperometric detector (Bioanalytical Systems) using potential of […]. Catecholamine levels are presented as pg/μg cell protein.

NHK [4] = assay: Secreted IL-6 ELISA in NHK; type: cell-based, human; conditions: for increase in IL-6 secretion as compared to untreated NHK: four hours, EPI 50 nM, MALP2 100 ng/ml, HKSA 10^4 cells/ml
Excerpt: NHK were isolated from human neonatal foreskins, cultured and maintained, as reported earlier (28,29). NHKs isolated from at least three different foreskins and between passages 3 and 7 were used in all the experiments. The Institutional Review Board at UC Davis approved the protocol for obtaining discarded neonatal foreskins.
as §2
(§6) Levels of interleukin-6 (IL-6) were measured with an ELISA kit (R&D systems). IL-6 levels were normalized to total cell protein and expressed as pg/μg protein β1).

NHK [5] = assay: Western blots (PNMT, TH) in NHK; type: cell-based, human
Description: as §2
Twenty five μg of total protein was resolved, transferred, and probed with antibodies for β2-AR (Abcam), phospho beta-adrenergic receptor activated kinase-1 (BARK-1/GRK2 referred to as BARK-1 from here after; GeneTex), TLR2 (Imgenex) Myeloid differentiation factor 88 (MyD88; Imgenex), phospho interleukin receptor activated kinase-1 (pIRAK-1 and IRAK-1; Cell Signaling), phospho ERK1/2 (Santacruz), phenylethanolamine N-methyltransferase (PNMT) and tyrosine hydroxylase (TH), and stripped membranes were further incubated with respective total antibodies or GAPDH or α-tubulin. TLR2 (Imgenex) and β2-AR (Santacruz) antibodies were used for co-immunoprecipation assays and antibody protein complexes were further probed with above antibodies β1). […]

BM-MSC [6] = assay: Real time PCR (TLR2, ADRB2 mRNA) in BM-MSC; type: cell-based, human
Description: as §2
mRNA expression was determined by real-time PCR (RT-PCR), using sequence-specific primers and probes. Total RNA was extracted from the cells using Qiagen RNeasy mini kit. The first strand of cDNA was synthesized using 1 μg of total RNA. cDNA (50 ng) was amplified using primer probe sets for TLR2, beta-2-adrenergic receptor (ADRB2) and three housekeeping genes: beta-2-microglobulin, GAPDH, and RPLPO using standard cycling parameters. Data were calculated using the 2-ΔΔCt method and are presented as fold change (ratio of transcripts of gene normalized to the three house-keeping genes) (11-13, 31).

BM-MSC [7] = assay: HPLC detection of catecholamines in BM-MSC supernatants; type: cell-based, human; conditions: MALP2 100 ng/ml
Description: as §4, §5

BM-MSC [8] = assay: Secreted IL-6 ELISA in BM-MSC; type: cell-based, human; conditions: for increase in IL-6 secretion as compared to untreated control cells: four hours, EPI 50 nM, MALP2 100 ng/ml, HKSA 10^4 cells/ml
Excerpt: as §1, §2, §6

BM-MSC [9] = assay: Western blots in BM-MSC; type: cell-based, human
Description: as §2, §3

C57BL/6J mice = assay: Full-thickness cutaneous wounds in EPI stressed mice (osmotic pumps); type: in vivo, mouse; conditions: for wound closure: EPI 7 mg/kg body weight/day, ICI 0.7 mg/kg body weight/day by osmotic pump; for TLR2 expression in wound tissue: day 7 after injury; for IL-6 levels in the wound tissue / phosphorylation of ERK1/2 in wounds: mouse, in vivo
Description: C57BL/6J (male; 8-10 week age; Jax Mice) with ad libitum access to food and water were anesthetized using isoflurane and one 6 mm circular diameter full-thickness wound was placed on the dorsal shaved skin β1). Micro-osmotic pumps (0.25 μl/hour; Alzet micro-osmotic pump Model: 1002, Alzet) were implanted on the right flank of the mice to deliver 7 mg/kg body weight/day EPI and 0.7 mg/kg body weight/day of ICI) as we have previously reported (11-13,30). At 7 or 11 days after injury, the mice were euthanized, the wound tissue was harvested by 8 mm punch excision and stored frozen or formalin—fixed until further analysis. Animal protocols were approved by the IACUC at UC Davis.

Bone marrow MSCs = assay: BM-MSC migration tracked for 12 hours after antagonist treatment (FIG. 11); type: cell-based, human; conditions: treated 1 hour, tracked 12 hours
Description: FIG. 11 illustrates that results are not limited to one class of beta adrenergic antagonist. Bone marrow MSCs from two different individuals were cultured and treated with either a non-specific beta adrenergic receptor antagonist (timolol) or a beta 2 adrenergic receptor specific antagonist (ICI 118,551) at stated concentrations for 1 hour, then cell migration was tracked for 12 hours. For each experiment 80-90 cells were tracked. Means+/−SEM shown, *=p<0.005.

NHK [10] = assay: Scratch wound assay in confluent NHK cultures; type: cell-based, human; conditions: 30 minutes pretreatment; for IL-6 secretion in wounded NHK confluent sheets: antagonists 10 μM; for effect on EPI+MALP2 or EPI+HKSA delayed NHK migration: scratch-wounded NHK, antagonist 10 μM
Description: as §6
The rate of healing scratch wounds made in confluent NHK cultures was determined as reported previously (30, 32). Briefly, cells were pretreated with 10 μg/ml mitomycin (EMD Millipore) for 1 hr to inhibit cell proliferation that could skew the data analysis. Wounded cultures were incubated in growth medium (control) containing EPI, TLR2 ligands, and/or Timolol or ICI. Velocity Image analysis software (Perkin Elmer) was used to measure the scratch wound area, which is expressed as percent closed wound.

RAW 264.7 macrophages = conditions: cited from earlier work
[11] = cited from earlier work
murine macrophages = conditions: epinephrine pretreatment; cited from earlier work
[12] = tested on: monocytic cell line and rat macrophages; conditions: supraphysiologic levels of EPI (5000-10,000 ng/ml); cited from earlier work
[13] = BM-MSC, Timolol 10 μM, 30 min pretreatment

- β2-adrenergic receptor mRNA expression (BM-MSC [6]; MALP2 100 ng/ml): significantly up-regulated
Compound: MALP2
- inhibition in migratory speed (BM-MSC [1]): 15%
- β2-AR expression and BARK-1 phosphorylation in TLR2 immunoprecipitates (NHK [2]): noticeable increase
- catecholamine response of NHKs relative to BM-MSC (NHK [3]; MALP2 treated): 2-4 fold
- EPI and norepinephrine levels in cell culture supernatants (NHK [3]; NHK, MALP2 100 ng/ml): increased
- increase in IL-6 secretion as compared to untreated NHK (NHK [4]): 8.8 fold
- PNMT and TH enzymes (NHK [5]): induced
- EPI and norepinephrine levels in cell culture supernatants (BM-MSC [7]): increased
- increase in IL-6 secretion as compared to untreated control cells (BM-MSC [8]; BM-MSC): 2.6 fold
- BARK-1 phosphorylation (BM-MSC [9]): significantly increased
- PNMT and TH enzymes (BM-MSC [9]): induced
- β2-adrenergic receptor protein expression (BM-MSC [9]; MALP2 100 ng/ml): significantly up-regulated

- IL-6 release by human keratinocytes under β adrenergic receptor antagonist (NHK [4]): suppression
Compound: Cc1ccc(OCC(O)C(C)NC(C)C)c2c1CCC2 (stereo not drawn) [ICI 118,551]
- wound closure (C57BL/6J mice): reversed
- TLR2 expression in wound tissue (C57BL/6J mice): reversed
- IL-6 levels in the wound tissue (C57BL/6J mice): decreased
- phosphorylation of ERK1/2 in wounds (C57BL/6J mice): increases
- migratory speed of bone marrow derived MSC (Bone marrow MSCs): increase migratory speed
- IL-6 secretion in wounded NHK confluent sheets (NHK [10]): reverses
- effect on EPI+MALP2 or EPI+HKSA delayed NHK migration (NHK [10]): reverses

Compound: Polymyxin B
- effect of pretreatment on EPI or MALP2 induced IL-6 levels (BM-MSC [8]; BM-MSC, endotoxin control): did not affect

Compound: OCc1cc(C(O)CNCCCCCCOCCCCc2ccccc2)ccc1O (stereo not drawn) [salmeterol]
- IL-1β and IL-6 protein production (RAW 264.7 macrophages): significant increase
- increase in IL-1β transcripts (RAW 264.7 macrophages): 80 fold
- increase in IL-6 transcripts (RAW 264.7 macrophages): 8 fold

Compound: CC(C)(C)NCC(O)COc1cccc2c1CC(O)C(O)C2 (stereo not drawn) [Nadolol]
- lipid solubility [11]: low

- IL-6 release by human keratinocytes under β adrenergic receptor antagonist (NHK [4]): suppression
Compound: CC(C)(C)NC[C@H](O)COc1nsnc1N1CCOCC1 [Timolol]
- migratory speed of bone marrow derived MSC (Bone marrow MSCs): increase migratory speed
- IL-6 secretion in wounded NHK confluent sheets (NHK [10]): reverses
- effect on EPI+MALP2 or EPI+HKSA delayed NHK migration (NHK [10]): reverses
- decrease of EPI+HKSA induced IL-6 secretion by pretreatment (BM-MSC [8]; [13]): 1.5 fold
- decrease of EPI+MALP2 induced IL-6 secretion by pretreatment (BM-MSC [8]; [13]): 33 fold
- IL-6 levels (BM-MSC [8]; BM-MSC, mean±SD, antagonist 10 μM, 30 min pretreatment): 4.8±2.7 pg/μg protein

Compound: CNC[C@H](O)c1ccc(O)c(O)c1 [EPI, Epinephrine]
- wound closure (C57BL/6J mice): significantly decreased
- TLR2 expression in wound tissue (C57BL/6J mice): increased
- IL-6 levels in the wound tissue (C57BL/6J mice): significantly elevated
- phosphorylation of ERK1/2 in wounds (C57BL/6J mice): Decreased
- increase in IL-6 secretion as compared to untreated NHK (NHK [4]): 16 fold
- TNF-α production with LPS stimulation (murine macrophages): significantly increases
- TLR2 mRNA expression (BM-MSC [6]; EPI 50 nM): significantly increased
- increase in IL-6 secretion as compared to untreated control cells (BM-MSC [8]; BM-MSC): 3.8 fold
- EPI concentration of maximal induction of IL-6 secretion (BM-MSC [8]; EPI 50-1000 nM, 4 hr and 24 hr): 50 nM
- TLR4 mRNA expression [12]: decreases
- BARK-1 phosphorylation (BM-MSC [9]): increased
- MyD88 protein expression (BM-MSC [9]; EPI 50 nM): significantly elevated
- TLR2 protein levels (BM-MSC [9]; EPI 50 nM): significantly increased
